For 58 sequences, remaining target (mRNA or protein) (fraction of control) results are on record in the OligoGym collection.

Among the targets are MAP2K1; PIK3CD; PIK3CB; SMAD3.
Common to all, as to conditions: ASO

Where “and” joins values, the source holds several entries; their conditions need not be identical. Identical values can stand only once. These antisense oligonucleotides have a phosphorothioate backbone; sugars and methylation of C are not fully specified.
Note: test concentration or dose not given here.

In turn, CTCTTTGTTGCTTCCCAA had a remaining target (mRNA or protein) (fraction of control) with MAP2K1 of 0.38.

In turn, CTGACTGCACAGAGTAAT showed a remaining target (mRNA or protein) (fraction of control) with MAP2K1 of 0.2.

For CTGCGTTGTTACTTCCCAGA, the remaining target (mRNA or protein) (fraction of control) in the data set with PIK3CD was ≥ 1 and 0.41.

The sequence CTGGAAGAAAAGGTCTGACA showed a remaining target (mRNA or protein) (fraction of control) in the data set with PIK3CB of no less than 1.

In the case of CTGGGAGGAGCCACTACTGC, the remaining target (mRNA or protein) (fraction of control) in the data set with PIK3CD is 0.99 and 0.6.

Regarding CTTCCCATGAATAGTCAAAC, the remaining target (mRNA or protein) (fraction of control) with PIK3CB was found to be 0.53.

GAAGGATCTCACAAGGCT displayed a remaining target (mRNA or protein) (fraction of control) with MAP2K1 of 0.27.

GAGGATAACACATGGGTTCA had a remaining target (mRNA or protein) (fraction of control) in the data set with PIK3CB of no less than 1.

Regarding GAGGTTGAACATTGGGTAAT, in the data set with PIK3CB, the remaining target (mRNA or protein) (fraction of control) was 0.79.

In turn, GAGTTCTACATGAAAAGC had a remaining target (mRNA or protein) (fraction of control) with MAP2K1 of 0.66.

Take GATCCTTCAAGGAATCAAAT: the remaining target (mRNA or protein) (fraction of control) with PIK3CB is 0.91.

On to GATGACAGTTGTCCTCTCTG, for which the remaining target (mRNA or protein) (fraction of control) with PIK3CD is 0.84 and 0.46.

Consider GATGTCTGCCATAGCAGGAG, for which the remaining target (mRNA or protein) (fraction of control) with PIK3CB was no less than 1.

For GCAGTTTTGGAGGAGGCT, the remaining target (mRNA or protein) (fraction of control) with MAP2K1 was 0.32.

As to GCATCCTGCGTTGTTACTTC, the remaining target (mRNA or protein) (fraction of control) in the data set with PIK3CD was 0.89 and 0.35.

Regarding GCCACTACTGCCTGTTGTCT, in the data set with PIK3CD, the remaining target (mRNA or protein) (fraction of control) is 0.59 and 0.3.

For GCGCAGCTGGCAGGGCTGGG, the remaining target (mRNA or protein) (fraction of control) in the data set with PIK3CD is 0.86 and ≥ 1.

With GCGGCACGTCCTTGGTGGAC, in the data set with PIK3CD, the remaining target (mRNA or protein) (fraction of control) was 0.93 and 0.54.

GCTTGTGGGAGACCTTGA registered a remaining target (mRNA or protein) (fraction of control) in the data set with MAP2K1 of 0.65.

For the sequence GGAAGCTGAAGTCTAGCAGC, in the data set with PIK3CD, the remaining target (mRNA or protein) (fraction of control) is 0.84 and 0.56.

With GGACGGGCAGGAAGGGCTGC, in the data set with PIK3CD, the remaining target (mRNA or protein) (fraction of control) is ≥ 1 and 0.87.

As to GGAGCCACTACTGCCTGTTG, the remaining target (mRNA or protein) (fraction of control) with PIK3CD is 0.86 and 0.31.

As to GGAGGAGCCACTACTGCCTG, in the data set with PIK3CD, the remaining target (mRNA or protein) (fraction of control) is 0.98 and 0.55.

With GGCAGATTAAAGATGCTTTA, the remaining target (mRNA or protein) (fraction of control) with PIK3CD was 0.9 and 0.48.

Take GGCAGTCCACCCCAGGGGGC: the remaining target (mRNA or protein) (fraction of control) with PIK3CD was 0.76 and 0.56.

In the data set with PIK3CB, GGCATTATGAAACTGAAGCA registered a remaining target (mRNA or protein) (fraction of control) of no less than 1.

In turn, GGCCAAATCTGAAGCAGCGC had a remaining target (mRNA or protein) (fraction of control) with PIK3CB of no less than 1.

GGCCTTTTATTACAGCAA registered a remaining target (mRNA or protein) (fraction of control) in the data set with MAP2K1 of 0.5.

Sequence GGCGTCGGCTTCTTCTTG showed a remaining target (mRNA or protein) (fraction of control) in the data set with MAP2K1 of 0.3.

For the sequence GGGCAAAAGGAAATCCACAG, the remaining target (mRNA or protein) (fraction of control) with PIK3CB is no less than 1.

In turn, GGGCTGGGAGGAGCCACTAC registered a remaining target (mRNA or protein) (fraction of control) with PIK3CD of no less than 1.

For the sequence GGGGCATCCTGCGTTGTTAC, the remaining target (mRNA or protein) (fraction of control) in the data set with PIK3CD is no less than 1.

In turn, GTAATCCAACAACTCAAA returned a remaining target (mRNA or protein) (fraction of control) in the data set with MAP2K1 of 0.79.

GTACGGAGAGTTGCACTC came in with a remaining target (mRNA or protein) (fraction of control) with MAP2K1 of 0.25.

As to GTCAATATCCATAAGGAGGT, the remaining target (mRNA or protein) (fraction of control) with PIK3CB was no less than 1.

On to GTCGGTTCTTTCCCGTTAGG, for which the remaining target (mRNA or protein) (fraction of control) with PIK3CD is 0.52 and 0.35.

Sequence GTTGGTCTCCGCAGAGCT gave a remaining target (mRNA or protein) (fraction of control) with MAP2K1 of 0.37.

In turn, TAAACACGTCCTGGCAGTTT displayed a remaining target (mRNA or protein) (fraction of control) with PIK3CB of no less than 1.

For TAACGCGCTTCCAACTCC, in the data set with MAP2K1, the remaining target (mRNA or protein) (fraction of control) was found to be 0.3.

TAAGGCAACATCCGAAGATC: the remaining target (mRNA or protein) (fraction of control) in the data set with PIK3CB was determined as 0.96.

As to TACAACAGCATTGGTACT, the remaining target (mRNA or protein) (fraction of control) with MAP2K1 came out at 0.23.

As for TACATTTTCTTGATCTTGCA, the remaining target (mRNA or protein) (fraction of control) in the data set with PIK3CB was no less than 1.

Turning to TACCAGAGACAGTCCCAT, in the data set with MAP2K1, the remaining target (mRNA or protein) (fraction of control) was found to be 0.24.

Consider TATAAGAAATGGTAGCTTCC, for which, in the data set with PIK3CB, the remaining target (mRNA or protein) (fraction of control) was no less than 1.

In the data set with PIK3CB, TATTGAGAAAGTTCTTCATC came in with a remaining target (mRNA or protein) (fraction of control) of 0.86.

TCTCAGCCGCATCTCCTT gave a remaining target (mRNA or protein) (fraction of control) with MAP2K1 of 0.13.

TCTCGCTTCCTCCCTCGT came in with a remaining target (mRNA or protein) (fraction of control) with MAP2K1 of 0.74.

In the data set with MAP2K1, TCTGCTTCTGGGTAAGAA displayed a remaining target (mRNA or protein) (fraction of control) of no less than 1.

As for TGAAGCCCCAGCTATCAT, the remaining target (mRNA or protein) (fraction of control) with MAP2K1 is 0.41.

As for TGCAACACATAATCATAGGG, in the data set with PIK3CB, the remaining target (mRNA or protein) (fraction of control) is no less than 1.

In the data set with MAP2K1, TGCAGATACTGATCTCGC yielded a remaining target (mRNA or protein) (fraction of control) of 0.29.

Sequence TGCCAATTCATTTACTTTGA returned a remaining target (mRNA or protein) (fraction of control) with PIK3CB of no less than 1.

TGCTATCTGTGAATCCACCG had a remaining target (mRNA or protein) (fraction of control) with PIK3CB of 0.99.

Consider TGGAATAGTCCAAGAAAGAC, for which the remaining target (mRNA or protein) (fraction of control) with PIK3CD is no less than 1.

In the data set with MAP2K1, TGGAGTCTTTCTGGCGAC yielded a remaining target (mRNA or protein) (fraction of control) of 0.44.

Regarding TTAAGCCACCAGAGCAGA, the remaining target (mRNA or protein) (fraction of control) with SMAD3 is no less than 1.

In the data set with MAP2K1, TTCCAGCTTTCTTCAGGA displayed a remaining target (mRNA or protein) (fraction of control) of 0.58.

For the sequence TTCTTCCAGCCCAGCAGG, the remaining target (mRNA or protein) (fraction of control) with SMAD3 was no less than 1.
